US20060004002A1 (priority 2004, published 2006)
Like-named read-outs stand apart in the source and are kept apart here.

Assays:
Assay type in all cases: biochemical
Recombinant human Src = target: T1, Recombinant human Src (Homo sapiens, UniProt P12931); test: Src tyrosine kinase activity assay with poly E4Y and 32P-ATP
T1 construct: made in house; host or cells: baculovirus-insect cell system
Summary of the method: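 Src expressed in baculovirus-insect cells; Csk and FGFr expressed as GST fusions in E. coli. Kinase activity measured as 32P transfer from γ32P-ATP (0.2 mM, 0.2-0.4 mCi/μmol) to poly E4Y in 0.15 M EPPS-NaOH pH 8.0, 6 mM MgCl2, 10% glycerol, 0.1% Triton X-100; in ATP-variation runs (0-250 μM), poly E4Y fixed at 150 μg/ml.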

FGF receptor (FGFr) = target: T2, FGF receptor (FGFr); test: FGFr tyrosine kinase activity assay with poly E4Y and 32P-ATP; conditions: NI = no inhibition
T2 construct: fused on or other part: glutathione-S-transferase (GST) from the pGEX vector
Method: (§1) Recombinant human Src was expressed using the baculovirus-insect cell system and purified as published (Budde et al., 1993 and 2000). Recombinant Csk and the FGF receptor (FGFr) were expressed as […] fusion proteins using the pGEX expression vector and E. coli, and purified as described (Sun & Budde, 1995).
(§2) The tyrosine kinase activity of Src, Csk and FGFr was determined using poly E4Y and ^32P-ATP. Briefly, enzymes were assayed in a reaction mixture […] consisting of 0.15 M EPPS-NaOH (pH 8.0) with 6 mM MgCl2, 0.2 mM γ^32P-ATP (0.2-0.4 mCi/μmol), 10% glycerol, 0.1% Triton X-100, and poly E4Y. Poly E4Y is a synthetic peptide whose phosphorylation is measured in this assay by the addition of the radioactively labeled phosphate from the ATP (Budde et al., 1995). […] When ATP was varied (0, 50, 100 and 250 μM), poly E4Y was kept constant at 150 μg/ml.

Recombinant Csk = target: T3, Recombinant Csk (Homo sapiens, UniProt P41240); test: Csk tyrosine kinase activity assay with poly E4Y and 32P-ATP; conditions: NI = no inhibition
T3 construct: GST ('glutathione-5-transferase' [sic]); made in house; host or cells: E. coli (pGEX expression vector)
Method: as §1, §2

[1] = poly E4Y, 32P-ATP, NI = no inhibition, read-out: IC50 Value Src
[2] = especially good inhibitors of Src, screening assay 50 μg/ml poly E4Y, 0.2 mM ATP, read-out: IC50 (inhibitors of Src)

T1 sequence (P12931 whole entry): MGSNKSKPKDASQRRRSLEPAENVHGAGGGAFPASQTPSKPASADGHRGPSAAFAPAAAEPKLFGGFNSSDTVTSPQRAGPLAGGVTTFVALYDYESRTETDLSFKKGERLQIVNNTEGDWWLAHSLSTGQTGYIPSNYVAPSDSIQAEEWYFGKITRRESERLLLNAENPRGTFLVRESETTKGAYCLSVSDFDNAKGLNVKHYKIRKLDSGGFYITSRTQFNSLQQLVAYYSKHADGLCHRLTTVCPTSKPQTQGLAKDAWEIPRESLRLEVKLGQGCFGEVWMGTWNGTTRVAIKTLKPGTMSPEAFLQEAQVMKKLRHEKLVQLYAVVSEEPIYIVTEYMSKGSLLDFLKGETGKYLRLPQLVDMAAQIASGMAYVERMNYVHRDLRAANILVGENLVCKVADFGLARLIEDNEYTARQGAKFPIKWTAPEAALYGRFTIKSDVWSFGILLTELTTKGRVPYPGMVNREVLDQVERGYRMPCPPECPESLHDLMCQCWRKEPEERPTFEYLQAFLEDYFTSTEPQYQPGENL
T3 sequence (P41240 whole entry, species assumed): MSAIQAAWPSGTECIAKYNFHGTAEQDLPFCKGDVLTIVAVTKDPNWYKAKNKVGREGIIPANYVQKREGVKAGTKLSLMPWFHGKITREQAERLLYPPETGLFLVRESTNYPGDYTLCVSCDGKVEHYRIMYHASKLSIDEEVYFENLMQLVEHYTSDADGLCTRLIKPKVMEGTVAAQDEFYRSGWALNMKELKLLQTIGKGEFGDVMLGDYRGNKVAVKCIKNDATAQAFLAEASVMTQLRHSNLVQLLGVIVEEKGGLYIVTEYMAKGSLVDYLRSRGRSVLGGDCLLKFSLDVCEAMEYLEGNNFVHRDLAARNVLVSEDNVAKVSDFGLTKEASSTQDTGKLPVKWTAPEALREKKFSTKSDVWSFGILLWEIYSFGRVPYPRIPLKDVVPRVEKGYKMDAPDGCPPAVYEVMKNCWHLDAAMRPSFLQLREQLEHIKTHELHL

With `CCOc1ccccc1-c1sc2c(NN=Cc3ccc(O)c(Cl)c3)ncnc2c1O` [Compound 92, 3-Chloro-4-hydroxybenzaldehyde (6-(2-ethoxyphenyl)-7-hydroxythieno[3,2-d]pyrimidin-4-yl)hydrazone] as the molecule, how does the IC50 (Recombinant human Src; [1]) read?
Its IC50 is 4.2 nM.

What about the IC50 (FGF receptor (FGFr)) of the same molecule?
Its IC50 is 27700 nM.

And the IC50 (Recombinant Csk)?
Its IC50 is 11300 nM.

`CCOc1ccccc1-c1sc2c(NN=Cc3ccc(O)c(OC)c3)ncnc2c1O` [Compound 88, 4-Hydroxy-3-methoxybenzaldehyde (6-(2-ethoxyphenyl)-7-hydroxythieno[3,2-d]pyrimidin-4-yl)hydrazone] was tested. Which IC50 (Recombinant human Src; [1]) did it give?
Its IC50 is 2.5 nM.

What about the IC50 (FGF receptor (FGFr)) of the same molecule?
Its IC50 is 2300 nM.

What about the IC50 (Recombinant Csk) of the same molecule?
Its IC50 is 3400 nM.

`CCOc1ccccc1-c1sc2c(NN=Cc3cc(Br)c(O)c(OC)c3)ncnc2c1O` [Compound 89, 3-Bromo-4-hydroxy-5-methoxybenzaldehyde (6-(2-ethoxyphenyl)-7-hydroxythieno[3,2-d]pyrimidin-4-yl)hydrazone] was tested. Which IC50 (Recombinant human Src; [1]) did it give?
Its IC50 is 2.5 nM.

What about the IC50 (FGF receptor (FGFr)) of the same molecule?
Its IC50 is 1900 nM.

And the IC50 (Recombinant Csk)?
The IC50 was 2900 nM.

`CCCOc1ccccc1-c1sc2c(NN=Cc3cccs3)ncnc2c1O` [Compound 85] was tested. Which IC50 (Recombinant human Src; [1]) did it give?
Its IC50 is 4.8 nM.

And the IC50 (FGF receptor (FGFr))?
Its IC50 is 7500 nM.

And the IC50 (Recombinant Csk)?
Its IC50 is 17700 nM.

With `CCOc1ccccc1-c1sc2c(NN=Cc3cccc(C(=O)O)c3)ncnc2c1O` [Compound 116, 3-Carboxybenzaldehyde (6-(2-ethoxyphenyl)-7-hydroxythieno[3,2-d]pyrimidin-4-yl)hydrazone] as the molecule, how does the IC50 (Recombinant human Src; [1]) read?
Its IC50 is 5 nM.

And the IC50 (Recombinant Csk)?
The IC50 was 7100 nM.

Which results are given for `CCOc1ccccc1-c1sc2c(NN=Cc3ccc(OC)c(O)c3)ncnc2c1O` [Compound 37, 3-Hydroxy-4-methoxybenzaldehyde (6-(2-ethoxyphenyl)-7-hydroxythieno[3,2-d]pyrimidin-4-yl)hydrazone]?
IC50 (Recombinant human Src; [2]): ≤ 2000 nM; IC50 (Recombinant human Src; [1]): 2.6 nM; IC50 (Recombinant Csk): 1280 nM

With `COc1ccc(C=NNc2ncnc3c(C)c(-c4ccc(CN5CCOCC5)cc4)sc23)cc1O` [Compound 46, 3-Hydroxy-4-methoxybenzaldehyde (6-(4-(morpholin-4-yl)methyl-phenyl)-7-methylthieno[3,2-d]pyrimidin-4-yl)hydrazone] as the molecule, how does the IC50 (Recombinant human Src; [1]) read?
The IC50 was 5.5 nM.

And the IC50 (FGF receptor (FGFr))?
The IC50 was 102000 nM.

What about the IC50 (Recombinant Csk) of the same molecule?
Its IC50 is 102000 nM.

For `CCOc1ccccc1-c1sc2c(NN=Cc3ccc(OC)c(O)c3)ncnc2c1CO` [Compound 33, 3-Hydroxy-4-methoxybenzaldehyde (7-hydroxymethyl-6-(2-ethoxyphenyl)thieno[3,2-d]pyrimidin-4-yl)hydrazone], which IC50 (Recombinant human Src; [1]) is on record?
Its IC50 is 11 nM.

And the IC50 (Recombinant Csk)?
The IC50 was 10000 nM.

How did the IC50 (Recombinant human Src; [1]) turn out when `Cc1c(-c2ccc(C(N)=NO)cc2)sc2c(NN=Cc3cccnc3)ncnc12` [Compound 50, 3-Pyridinecarboxaldehyde (6-(N-hydroxy-benzamidin-4-yl)-7-methylthieno[3,2-d]pyrimidin-4-yl)hydrazone] was run?
Its IC50 is 25 nM.

What about the IC50 (Recombinant Csk) of the same molecule?
The IC50 was 42000 nM.

What does the source list for `CCOc1cc(F)ccc1-c1sc2c(NN=Cc3ccc(OC)c(O)c3)ncnc2c1CO` [Compound 60, 3-Hydroxy-4-methoxybenzaldehyde (6-(2-ethoxy-4-fluorophenyl)-7-hydroxymethylthieno[3,2-d]pyrimidin-4-yl)hydrazone]?
IC50 (Recombinant human Src; [1]): 36 nM; IC50 (Recombinant Csk): 210000 nM

With `CCOc1ccccc1-c1sc2c(NN=Cc3ccc(OC)c(OCCN4CCOCC4)c3)ncnc2c1C` [Compound 52, 4-Methoxy-3-(2-(morpholin-4-yl)-ethoxy)-benzaldehyde (6-(2-ethoxyphenyl)-7-methylthieno[3,2-d]pyrimidin-4-yl)hydrazone] as the molecule, how does the IC50 (Recombinant human Src; [1]) read?
Its IC50 is 1.1 nM.

And the IC50 (Recombinant Csk)?
The IC50 was 46000 nM.

Which results are given for `COc1ccc(C=NNc2ncnc3c(C)c(-c4ccc(C(N)=NO)cc4)sc23)cc1O` [Compound 51, 3-Hydroxy-4-methoxybenzaldehyde (6-(N-hydroxy-benzamidin-4-yl)-7-methylthieno[3,2-d]pyrimidin-4-yl)hydrazone]?
IC50 (Recombinant human Src; [1]): 11 nM; IC50 (Recombinant Csk): 47000 nM

Which IC50 (Recombinant human Src; [2]) does the source give for `CCOc1ccccc1-c1sc2c(NN=Cc3ccc(O)cc3)ncnc2c1O` [Compound 104, 4-Hydroxybenzaldehyde (6-(2-ethoxyphenyl)-7-hydroxythieno[3,2-d]pyrimidin-4-yl)hydrazone] here?
The IC50 was no more than 2000 nM.

And the IC50 (Recombinant human Src; [1])?
The IC50 was 1.6 nM.

And the IC50 (Recombinant Csk)?
Its IC50 is 980 nM.

`CCOc1ccccc1-c1sc2c(NN=Cc3sccc3C)ncnc2c1O` [Compound 124, 3-Methyl-2-thiophenecarboxaldehyde (6-(2-ethoxyphenyl)-7-hydroxythieno[3,2-d]pyrimidin-4-yl)hydrazone] was tested. Which IC50 (Recombinant human Src; [1]) did it give?
Its IC50 is 9 nM.

What about the IC50 (Recombinant Csk) of the same molecule?
The IC50 was 15000 nM.

What does the source list for `COc1ccc(C=NNc2ncnc3c(CO)c(-c4ccc(N)cc4)sc23)cc1O` [Compound 58, 3-Hydroxy-4-methoxybenzaldehyde (6-(4-aminophenyl)-7-hydroxymethylthieno[3,2-d]pyrimidin-4-yl)hydrazone]?
IC50 (Recombinant human Src; [1]): 43 nM; IC50 (Recombinant Csk): 12000 nM

For `COc1ccc(C=NNc2ncnc3c(C)c(-c4ccc([N+](=O)[O-])cc4)sc23)cc1O` [Compound 39, 3-Hydroxy-4-methoxybenzaldehyde (6-(4-nitrophenyl)-7-methylthieno[3,2-d]pyrimidin-4-yl)hydrazone], which IC50 (Recombinant human Src; [1]) is on record?
Its IC50 is 160 nM.

And the IC50 (Recombinant Csk)?
The IC50 was 23000 nM.

For `CCOc1ccccc1-c1sc2c(NN=Cc3cc(O)c(OC)c(OC)c3)ncnc2c1O` [Compound 100, 3,4-Dimethoxy-5-hydroxybenzaldehyde (6-(2-ethoxyphenyl)-7-hydroxythieno[3,2-d]pyrimidin-4-yl)hydrazone], which IC50 (Recombinant human Src; [1]) is on record?
Its IC50 is 1.3 nM.

What about the IC50 (Recombinant Csk) of the same molecule?
Its IC50 is 2100 nM.
